Source: patent US12655116B2, “Substituted isophthalic acid diamides” (Bayer Aktiengesellschaft, priority 2020, dated 2026)

Key:
ABUTH [1] = assay: Pre-emergence herbicidal action against ABUTH; assay type: in vivo, Abutilon theophrasti; conditions: Abutilon theophrasti, 504 h
Outline: (§1)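 Herbicidal effect was assessed 3 weeks after treatment by visual comparison with untreated controls, 100% denoting dead plants. Aqueous WP or EC preparations had been applied at 600 to 800 l/ha with 0.2% wetting agent to the soil covering freshly sown seeds.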

ALOMY [2] = assay: Pre-emergence herbicidal action against ALOMY; assay type: in vivo, Alopecurus myosuroides; conditions: Alopecurus myosuroides, 504 h, pre-emergence
Outline: as §1

AMARE [3] = assay: Pre-emergence herbicidal action against AMARE; assay type: in vivo, Amaranthus retroflexus; conditions: Amaranthus retroflexus, 504 h, scored visually after 3 weeks vs untreated controls, 100% = plants have died, 0% = like control plants
Outline: as §1

AVEFA = assay: Pre-emergence herbicidal action against AVEFA; assay type: in vivo, Avena fatua; conditions: Avena fatua, 504 h; 80 g/ha, pre-emergence
Outline: as §1

ECHCG [4] = assay: Pre-emergence herbicidal action against ECHCG; assay type: in vivo, Echinochloa crus-galli; conditions: Echinochloa crus-galli, 504 h
Outline: as §1

MATIN [5] = assay: Pre-emergence herbicidal action against MATIN; assay type: in vivo, Matricaria inodora; conditions: Tripleurospermum inodorum, 504 h
Outline: as §1

PHBPU = assay: Pre-emergence herbicidal action against PHBPU; assay type: in vivo, Pharbitis purpurea; conditions: Ipomoea purpurea, 504 h
Outline: as §1

POLCO [6] = assay: Pre-emergence herbicidal action against POLCO; assay type: in vivo, Polygonum convolvulus; conditions: Fallopia convolvulus, 504 h, dosage 80 g/ha
Outline: as §1

SETVI [7] = assay: Pre-emergence herbicidal action against SETVI; assay type: in vivo, Setaria viridis; conditions: Setaria viridis, 504 h
Outline: as §1

VERPE [8] = assay: Pre-emergence herbicidal action against VERPE; assay type: in vivo, Veronica persica; conditions: Veronica persica, 504 h
Outline: as §1

VIOTR [9] = assay: Pre-emergence herbicidal action against VIOTR; assay type: in vivo, Viola tricolor; conditions: Viola tricolor, 504 h
Outline: as §1

DIGSA [10] = assay: Pre-emergence herbicidal action against DIGSA; assay type: in vivo, Digitaria sanguinalis; conditions: Digitaria sanguinalis, 504 h
Outline: as §1

ABUTH [11] = assay: Post-emergence herbicidal action against ABUTH; assay type: in vivo, Abutilon theophrasti; conditions: Abutilon theophrasti, 504 h, visual assessment about 3 weeks after treatment vs untreated controls
Outline: (§2)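 Herbicidal effect was scored visually in percent after about 3 weeks in the greenhouse. Plants had been raised in sandy loam and treated post-emergence at the one-leaf stage with formulated compound at 600 to 800 l/ha water plus 0.2% wetting agent.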

ALOMY [12] = assay: Post-emergence herbicidal action against ALOMY; assay type: in vivo, Alopecurus myosuroides; conditions: Alopecurus myosuroides, 504 h, dosage 20 g/ha, visual assessment about 3 weeks after treatment vs untreated controls
Outline: as §2

AMARE [13] = assay: Post-emergence herbicidal action against AMARE; assay type: in vivo, Amaranthus retroflexus; conditions: Amaranthus retroflexus, 504 h, 20 g/ha, visual assessment about 3 weeks after treatment, 100% = plants have died, 0% = like control plants
Outline: as §2

ECHCG [14] = assay: Post-emergence herbicidal action against ECHCG; assay type: in vivo, Echinochloa crus-galli; conditions: Echinochloa crus-galli, 504 h
Outline: as §2

MATIN [15] = assay: Post-emergence herbicidal action against MATIN; assay type: in vivo, Matricaria inodora; conditions: Tripleurospermum inodorum, 504 h
Outline: as §2

POLCO [16] = assay: Post-emergence herbicidal action against POLCO; assay type: in vivo, Polygonum convolvulus; conditions: Fallopia convolvulus, 504 h, dosage 20 g/ha
Procedure: Seeds of monocotyledonous and dicotyledonous weed and crop plants are laid out in sandy loam soil in wood-fiber pots, covered with soil and cultivated in a greenhouse under good growth conditions. 2 to 3 weeks after sowing, the test plants are treated at the one-leaf stage. The compounds of the invention, formulated in the form of wettable powders (WP) or as emulsion concentrates (EC), are then sprayed onto the green parts of the plants in the form of an aqueous suspension or emulsion at a water application rate equivalent to 600 to 800 l/ha, with addition of 0.2% wetting agent. After the test plants have been left to stand in the greenhouse under optimal growth conditions for about 3 weeks, the action of the preparations is assessed visually in comparison to untreated controls (herbicidal action in percent (%): 100% activity=the plants have died, 0% activity=like control plants). […] The tables below illustrate, in an illustrative manner, the post-emergence herbicidal action of the compounds of the invention, the herbicidal activity being stated in percent.

SETVI [17] = assay: Post-emergence herbicidal action against SETVI; assay type: in vivo, Setaria viridis; conditions: Setaria viridis, 504 h
Outline: as §2

VERPE [18] = assay: Post-emergence herbicidal action against VERPE; assay type: in vivo, Veronica persica; conditions: Veronica persica, 504 h
Outline: as §2

VIOTR [19] = assay: Post-emergence herbicidal action against VIOTR; assay type: in vivo, Viola tricolor; conditions: Viola tricolor, 504 h
Outline: as §2

DIGSA [20] = assay: Post-emergence herbicidal action against DIGSA; assay type: in vivo, Digitaria sanguinalis; conditions: Digitaria sanguinalis, 504 h
Outline: as §2

[21] = 80 g/ha, scored visually after 3 weeks vs untreated controls (100% = plants have died, 0% = like control plants)

CCNC(=O)c1c(C(F)(F)F)ccc(C(=O)Nc2nnnn2CC)c1C1CC1 [Example 2-287]
pest or weed control at 80 g/ha (ABUTH [1]; [21]): 100%
pest or weed control at 20 g/ha (ABUTH [1]; dosage 20 g/ha, scored visually after 3 weeks vs untreated controls, 100% = plants have died, 0% = like control plants, read-out: Pre-emergence action against ABUTH (herbicidal activity in percent)): 100%
pest or weed control at 80 g/ha (ALOMY [2]; [21]): 90%
pest or weed control at 20 g/ha (ALOMY [2]; 20 g/ha, scored visually after 3 weeks, 100% = plants have died, 0% = like control plants): 80%
pest or weed control at 20 g/ha (AMARE [3]; 20 g/ha): 100%
pest or weed control at 80 g/ha (AMARE [3]; 80 g/ha): 100%
pest or weed control at 80 g/ha (AVEFA): 80%
pest or weed control at 20 g/ha (ECHCG [4]; 20 g/ha): 90%
pest or weed control at 80 g/ha (ECHCG [4]; 80 g/ha): 100%
pest or weed control at 20 g/ha (MATIN [5]; dosage 20 g/ha): 100%
pest or weed control at 80 g/ha (MATIN [5]; dosage 80 g/ha): 100%
pest or weed control at 20 g/ha (PHBPU; dosage 20 g/ha): 80%
pest or weed control at 80 g/ha (PHBPU; dosage 80 g/ha): 80%
pest or weed control at 80 g/ha (POLCO [6]): 80%
pest or weed control at 20 g/ha (SETVI [7]; dosage 20 g/ha): 90%
pest or weed control at 80 g/ha (SETVI [7]; dosage 80 g/ha): 100%
pest or weed control at 20 g/ha (VERPE [8]; dosage 20 g/ha): 90%
pest or weed control at 80 g/ha (VERPE [8]; dosage 80 g/ha): 100%
pest or weed control at 20 g/ha (VIOTR [9]; dosage 20 g/ha): 100%
pest or weed control at 80 g/ha (VIOTR [9]; dosage 80 g/ha): 100%
pest or weed control at 20 g/ha (DIGSA [10]; dosage 20 g/ha): 100%
pest or weed control at 80 g/ha (DIGSA [10]; dosage 80 g/ha): 100%
pest or weed control at 5 g/ha (ABUTH [11]; dosage 5 g/ha): 80%
pest or weed control at 20 g/ha (ABUTH [11]; dosage 20 g/ha): 80%
pest or weed control at 20 g/ha (ALOMY [12]): 90%
pest or weed control at 20 g/ha (AMARE [13]): 100%
pest or weed control at 5 g/ha (ECHCG [14]; dosage 5 g/ha): 80%
pest or weed control at 20 g/ha (ECHCG [14]; dosage 20 g/ha): 80%
pest or weed control at 5 g/ha (MATIN [15]; dosage 5 g/ha): 90%
pest or weed control at 20 g/ha (MATIN [15]; dosage 20 g/ha): 90%
pest or weed control at 20 g/ha (POLCO [16]): 100%
pest or weed control at 5 g/ha (SETVI [17]; dosage 5 g/ha): 80%
pest or weed control at 20 g/ha (SETVI [17]; dosage 20 g/ha): 90%
pest or weed control at 5 g/ha (VERPE [18]; 5 g/ha): 80%
pest or weed control at 20 g/ha (VERPE [18]; 20 g/ha): 100%
pest or weed control at 5 g/ha (VIOTR [19]; 5 g/ha): 80%
pest or weed control at 20 g/ha (VIOTR [19]; 20 g/ha): 90%
pest or weed control at 5 g/ha (DIGSA [20]; 5 g/ha): 90%
pest or weed control at 20 g/ha (DIGSA [20]; 20 g/ha): 90%
